Common to all, as to format: binding
Experiment [1] has as its target T1, panel of 442 kinases (Homo sapiens, UniProt P43405).
T1 construct: purchased Ambit Biosciences (scanMAXX KINOMEscan)
The experiment in a line: biochemical. The conditions noted are these: kinase SYK; for remaining activity at 1 µM: read-out: SYK (% of control at 1 µM).

The target in experiment [2] is T2, panel of 442 kinases (Homo sapiens, UniProt P54764).
T2 construct: purchased Ambit Biosciences (scanMAXX KINOMEscan)
The experiment in a line: biochemical. The conditions noted are these: EPHA4; for remaining activity at 1 µM: read-out: % of control at 1 µM.

In experiment [3] the target is T3, panel of 442 kinases (Homo sapiens, UniProt Q9H422).
T3 construct: purchased Ambit Biosciences (scanMAXX KINOMEscan)
T3 sequence (Q9H422 whole entry): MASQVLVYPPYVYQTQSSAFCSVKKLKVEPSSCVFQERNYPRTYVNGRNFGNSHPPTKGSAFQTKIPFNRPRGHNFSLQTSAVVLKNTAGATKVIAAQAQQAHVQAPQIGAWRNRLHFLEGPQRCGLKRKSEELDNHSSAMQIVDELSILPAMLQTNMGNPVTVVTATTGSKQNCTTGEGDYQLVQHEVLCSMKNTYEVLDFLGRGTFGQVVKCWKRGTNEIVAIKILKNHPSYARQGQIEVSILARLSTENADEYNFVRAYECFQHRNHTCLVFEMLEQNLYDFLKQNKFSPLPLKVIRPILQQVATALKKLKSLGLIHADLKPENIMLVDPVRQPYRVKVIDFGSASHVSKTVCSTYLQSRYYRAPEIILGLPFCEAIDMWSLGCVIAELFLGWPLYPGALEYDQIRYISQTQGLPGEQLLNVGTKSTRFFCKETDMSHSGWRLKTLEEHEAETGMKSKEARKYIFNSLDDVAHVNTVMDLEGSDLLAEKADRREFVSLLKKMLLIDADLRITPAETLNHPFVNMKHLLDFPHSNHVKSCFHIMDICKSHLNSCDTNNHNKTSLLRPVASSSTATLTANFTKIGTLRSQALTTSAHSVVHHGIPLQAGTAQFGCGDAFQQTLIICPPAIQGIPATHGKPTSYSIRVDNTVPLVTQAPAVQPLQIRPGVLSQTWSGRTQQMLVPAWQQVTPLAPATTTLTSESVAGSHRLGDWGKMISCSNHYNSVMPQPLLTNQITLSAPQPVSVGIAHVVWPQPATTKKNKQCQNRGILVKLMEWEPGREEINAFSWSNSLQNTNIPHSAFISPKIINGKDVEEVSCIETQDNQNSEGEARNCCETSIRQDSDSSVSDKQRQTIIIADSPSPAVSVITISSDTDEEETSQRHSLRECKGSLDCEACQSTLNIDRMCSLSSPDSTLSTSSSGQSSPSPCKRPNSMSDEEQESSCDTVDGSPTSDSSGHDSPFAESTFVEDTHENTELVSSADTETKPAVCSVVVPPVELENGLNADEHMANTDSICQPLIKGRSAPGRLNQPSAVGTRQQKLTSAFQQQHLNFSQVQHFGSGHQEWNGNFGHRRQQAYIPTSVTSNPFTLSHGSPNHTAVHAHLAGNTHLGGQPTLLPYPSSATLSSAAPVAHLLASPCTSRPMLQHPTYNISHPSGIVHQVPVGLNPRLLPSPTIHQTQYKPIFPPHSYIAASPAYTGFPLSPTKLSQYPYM
The experiment in a line: biochemical. The conditions noted are these: kinase HIPK3; for remaining activity at 1 µM: read-out: % of control at 1 µM.

The target in experiment [4] is T4, panel of 442 kinases (Homo sapiens, UniProt P14616).
T4 construct: purchased Ambit Biosciences (scanMAXX KINOMEscan)
T4 sequence (P14616 27-1297): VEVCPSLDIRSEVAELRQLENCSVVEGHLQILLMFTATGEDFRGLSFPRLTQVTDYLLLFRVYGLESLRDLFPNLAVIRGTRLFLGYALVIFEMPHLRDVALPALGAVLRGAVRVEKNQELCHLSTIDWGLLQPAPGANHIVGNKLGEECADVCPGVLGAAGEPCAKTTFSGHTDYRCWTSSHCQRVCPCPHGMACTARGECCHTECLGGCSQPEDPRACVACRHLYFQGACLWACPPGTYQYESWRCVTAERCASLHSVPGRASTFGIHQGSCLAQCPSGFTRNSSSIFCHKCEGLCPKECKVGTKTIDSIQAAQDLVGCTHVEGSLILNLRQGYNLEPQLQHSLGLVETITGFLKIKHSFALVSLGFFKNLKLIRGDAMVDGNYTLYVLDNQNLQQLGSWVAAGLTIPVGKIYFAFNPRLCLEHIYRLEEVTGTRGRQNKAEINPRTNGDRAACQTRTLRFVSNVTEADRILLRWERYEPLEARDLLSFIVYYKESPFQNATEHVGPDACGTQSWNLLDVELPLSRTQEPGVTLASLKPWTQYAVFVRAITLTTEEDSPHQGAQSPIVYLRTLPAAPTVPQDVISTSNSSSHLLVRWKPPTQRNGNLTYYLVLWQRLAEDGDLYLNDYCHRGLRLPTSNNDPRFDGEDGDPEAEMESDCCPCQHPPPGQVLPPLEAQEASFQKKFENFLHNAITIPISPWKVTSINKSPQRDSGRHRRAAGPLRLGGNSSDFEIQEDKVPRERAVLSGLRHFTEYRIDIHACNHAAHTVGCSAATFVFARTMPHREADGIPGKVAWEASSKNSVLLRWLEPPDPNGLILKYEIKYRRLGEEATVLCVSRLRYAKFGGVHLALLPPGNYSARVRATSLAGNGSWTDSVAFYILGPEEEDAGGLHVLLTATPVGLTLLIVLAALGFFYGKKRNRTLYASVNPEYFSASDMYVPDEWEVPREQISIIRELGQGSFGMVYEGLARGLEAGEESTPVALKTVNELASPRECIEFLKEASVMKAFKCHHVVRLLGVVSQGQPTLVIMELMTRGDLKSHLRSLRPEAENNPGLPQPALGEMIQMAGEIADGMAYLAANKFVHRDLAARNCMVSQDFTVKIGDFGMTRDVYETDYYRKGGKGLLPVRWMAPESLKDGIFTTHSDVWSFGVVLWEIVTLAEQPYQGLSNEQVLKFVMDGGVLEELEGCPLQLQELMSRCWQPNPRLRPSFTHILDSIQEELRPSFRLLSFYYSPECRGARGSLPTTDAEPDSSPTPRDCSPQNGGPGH
The experiment is described as follows: biochemical. The conditions noted are these: kinase INSRR; for remaining activity at 1 µM: read-out: % of control at 1 µM.

Experiment [5] deals with T5, panel of 442 kinases (Homo sapiens, UniProt P06239).
T5 construct: purchased Ambit Biosciences (scanMAXX KINOMEscan)
T5 sequence (P06239 whole entry): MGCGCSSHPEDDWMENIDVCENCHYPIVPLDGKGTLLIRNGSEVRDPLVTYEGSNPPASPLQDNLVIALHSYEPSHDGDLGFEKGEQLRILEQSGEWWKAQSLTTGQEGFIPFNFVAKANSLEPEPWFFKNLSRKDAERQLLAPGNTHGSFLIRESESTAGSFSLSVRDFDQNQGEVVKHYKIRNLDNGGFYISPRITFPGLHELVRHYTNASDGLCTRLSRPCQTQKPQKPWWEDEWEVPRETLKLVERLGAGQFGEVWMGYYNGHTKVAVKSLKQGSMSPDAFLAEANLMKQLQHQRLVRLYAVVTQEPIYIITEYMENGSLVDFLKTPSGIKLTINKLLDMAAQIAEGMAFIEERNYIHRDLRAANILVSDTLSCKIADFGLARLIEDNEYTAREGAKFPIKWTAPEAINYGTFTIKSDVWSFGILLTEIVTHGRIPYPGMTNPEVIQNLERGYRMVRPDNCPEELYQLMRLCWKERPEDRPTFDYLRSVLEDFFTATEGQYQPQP
The experiment in a line: biochemical. The conditions noted are these: kinase LCK; for remaining activity at 1 µM: read-out: % of control at 1 µM.

Experiment [6] deals with T6, panel of 442 kinases (Homo sapiens, UniProt Q8IY84).
T6 construct: purchased Ambit Biosciences (scanMAXX KINOMEscan)
T6 sequence (Q8IY84 whole entry): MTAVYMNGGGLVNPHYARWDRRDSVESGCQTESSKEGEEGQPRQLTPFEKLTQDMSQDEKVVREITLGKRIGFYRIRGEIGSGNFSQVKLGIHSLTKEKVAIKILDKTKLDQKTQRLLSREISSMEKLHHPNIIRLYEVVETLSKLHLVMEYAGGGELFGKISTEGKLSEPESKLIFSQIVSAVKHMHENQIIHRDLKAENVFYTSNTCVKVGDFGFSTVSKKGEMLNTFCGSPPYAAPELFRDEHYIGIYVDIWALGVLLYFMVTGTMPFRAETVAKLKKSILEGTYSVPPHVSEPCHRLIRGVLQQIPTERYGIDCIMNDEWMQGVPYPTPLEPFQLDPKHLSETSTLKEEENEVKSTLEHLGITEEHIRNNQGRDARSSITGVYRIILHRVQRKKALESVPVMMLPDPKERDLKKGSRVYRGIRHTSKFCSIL
The experiment in a line: biochemical. The conditions noted are these: kinase NIM1; for remaining activity at 1 µM: read-out: % of control at 1 µM.

Experiment [7] deals with T7, panel of 442 kinases (Plasmodium falciparum, UniProt P62344).
T7 construct: purchased Ambit Biosciences (scanMAXX KINOMEscan)
T7 sequence (P62344 whole entry): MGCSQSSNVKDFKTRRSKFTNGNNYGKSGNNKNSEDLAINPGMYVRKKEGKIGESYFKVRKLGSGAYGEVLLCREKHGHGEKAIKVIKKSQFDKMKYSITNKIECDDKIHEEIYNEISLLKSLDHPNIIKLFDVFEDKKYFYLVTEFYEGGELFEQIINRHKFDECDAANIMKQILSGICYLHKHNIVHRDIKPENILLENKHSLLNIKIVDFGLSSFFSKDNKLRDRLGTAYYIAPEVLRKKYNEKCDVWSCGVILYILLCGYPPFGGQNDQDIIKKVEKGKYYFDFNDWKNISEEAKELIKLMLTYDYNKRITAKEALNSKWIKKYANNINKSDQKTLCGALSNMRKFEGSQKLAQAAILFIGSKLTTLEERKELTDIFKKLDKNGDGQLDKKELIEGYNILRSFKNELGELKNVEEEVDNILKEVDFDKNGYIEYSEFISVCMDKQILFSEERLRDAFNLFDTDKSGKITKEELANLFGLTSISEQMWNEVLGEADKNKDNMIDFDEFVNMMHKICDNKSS
The experiment in a line: biochemical. The conditions noted are these: kinase PFCDPK1(P.falciparum); for remaining activity at 1 µM: read-out: % of control at 1 µM; for remaining activity at 10 µM: read-out: % of control at 10 µM.

The target of experiment [8] is T8, PIK3C2G (Homo sapiens, UniProt O75747).
T8 construct: purchased Ambit Biosciences (scanMAXX KINOMEscan)
T8 sequence (O75747 1-1486): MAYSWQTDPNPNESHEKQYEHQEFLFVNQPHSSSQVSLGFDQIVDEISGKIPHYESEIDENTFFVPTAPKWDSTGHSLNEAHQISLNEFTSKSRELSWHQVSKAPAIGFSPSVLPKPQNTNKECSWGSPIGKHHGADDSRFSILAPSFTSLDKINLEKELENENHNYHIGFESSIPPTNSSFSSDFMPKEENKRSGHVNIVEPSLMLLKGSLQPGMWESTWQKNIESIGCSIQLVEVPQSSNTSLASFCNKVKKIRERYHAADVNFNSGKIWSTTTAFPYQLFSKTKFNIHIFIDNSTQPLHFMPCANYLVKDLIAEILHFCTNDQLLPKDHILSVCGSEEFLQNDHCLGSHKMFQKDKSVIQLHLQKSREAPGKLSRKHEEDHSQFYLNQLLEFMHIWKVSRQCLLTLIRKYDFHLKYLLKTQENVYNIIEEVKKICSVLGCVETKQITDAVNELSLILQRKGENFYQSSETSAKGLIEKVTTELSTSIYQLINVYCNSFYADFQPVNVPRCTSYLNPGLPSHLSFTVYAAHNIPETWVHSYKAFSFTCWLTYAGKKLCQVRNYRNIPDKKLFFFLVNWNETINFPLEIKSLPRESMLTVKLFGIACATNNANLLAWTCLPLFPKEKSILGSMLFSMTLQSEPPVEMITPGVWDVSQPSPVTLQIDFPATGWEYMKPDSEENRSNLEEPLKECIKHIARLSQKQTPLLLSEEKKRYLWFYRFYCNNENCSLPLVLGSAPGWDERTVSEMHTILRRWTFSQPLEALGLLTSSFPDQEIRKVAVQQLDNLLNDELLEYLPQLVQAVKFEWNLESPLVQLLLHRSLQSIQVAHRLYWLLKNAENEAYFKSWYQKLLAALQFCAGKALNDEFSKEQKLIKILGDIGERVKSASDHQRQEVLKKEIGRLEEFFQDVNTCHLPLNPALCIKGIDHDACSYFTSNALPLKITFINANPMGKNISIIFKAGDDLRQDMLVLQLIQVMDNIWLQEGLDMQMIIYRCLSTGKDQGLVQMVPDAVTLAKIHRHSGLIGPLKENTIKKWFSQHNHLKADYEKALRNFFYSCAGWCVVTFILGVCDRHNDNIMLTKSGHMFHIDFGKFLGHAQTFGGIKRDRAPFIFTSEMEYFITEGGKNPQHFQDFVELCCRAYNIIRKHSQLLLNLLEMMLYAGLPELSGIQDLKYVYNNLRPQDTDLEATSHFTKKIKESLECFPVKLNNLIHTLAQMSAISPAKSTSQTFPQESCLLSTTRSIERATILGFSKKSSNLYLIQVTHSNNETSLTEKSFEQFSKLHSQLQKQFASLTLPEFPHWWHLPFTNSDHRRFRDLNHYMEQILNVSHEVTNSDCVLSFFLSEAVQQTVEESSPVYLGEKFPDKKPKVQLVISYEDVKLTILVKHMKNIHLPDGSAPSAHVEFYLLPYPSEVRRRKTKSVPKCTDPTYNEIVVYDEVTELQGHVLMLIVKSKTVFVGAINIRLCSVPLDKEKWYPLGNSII
The experiment in a line: KINOMEscan, PIK3C2G. The conditions noted are these: for remaining binding at 1 µM / remaining binding at 10 µM: kinase PIK3C2G; for remaining binding at 1 µM: read-out: % of control at 1 µM; for remaining binding at 10 µM: read-out: % of control at 10 µM.

[9] abbreviates: 10 µM, read-out: % of control at 10 µM.

The values that follow come from PMC5564600 (Oncotarget, 2017).

One may read the inhibition as how much of the control response was suppressed.

T2 sequence (P54764 20-986): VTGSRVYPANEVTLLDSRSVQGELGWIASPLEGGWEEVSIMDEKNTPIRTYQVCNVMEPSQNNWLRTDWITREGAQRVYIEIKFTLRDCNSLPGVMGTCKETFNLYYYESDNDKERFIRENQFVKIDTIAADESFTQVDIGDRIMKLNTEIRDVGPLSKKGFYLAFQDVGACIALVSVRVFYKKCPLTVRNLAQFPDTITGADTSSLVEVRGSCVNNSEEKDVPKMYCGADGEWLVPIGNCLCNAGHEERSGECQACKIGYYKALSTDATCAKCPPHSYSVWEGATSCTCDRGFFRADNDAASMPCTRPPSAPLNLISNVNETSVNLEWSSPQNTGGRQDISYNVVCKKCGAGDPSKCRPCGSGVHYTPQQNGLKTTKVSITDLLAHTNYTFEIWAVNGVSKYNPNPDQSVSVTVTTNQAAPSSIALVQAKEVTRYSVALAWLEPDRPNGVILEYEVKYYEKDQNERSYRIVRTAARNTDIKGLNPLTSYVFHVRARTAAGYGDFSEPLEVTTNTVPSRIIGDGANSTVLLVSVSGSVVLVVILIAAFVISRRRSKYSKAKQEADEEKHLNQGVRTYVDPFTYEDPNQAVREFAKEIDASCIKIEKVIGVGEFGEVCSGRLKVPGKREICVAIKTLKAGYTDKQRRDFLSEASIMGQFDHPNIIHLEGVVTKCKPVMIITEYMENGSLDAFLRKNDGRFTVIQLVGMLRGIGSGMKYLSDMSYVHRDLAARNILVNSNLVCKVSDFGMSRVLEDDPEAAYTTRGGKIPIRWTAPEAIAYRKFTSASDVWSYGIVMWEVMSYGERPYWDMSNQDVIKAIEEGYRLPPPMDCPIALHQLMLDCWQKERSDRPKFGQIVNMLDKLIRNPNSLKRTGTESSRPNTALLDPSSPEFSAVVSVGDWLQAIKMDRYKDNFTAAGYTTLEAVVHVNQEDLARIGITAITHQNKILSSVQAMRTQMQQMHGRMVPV

Consider `COc1ncc(-c2ccc3nccc(-c4ccnnc4)c3c2)cc1NS(=O)(=O)c1ccc(F)cc1F` [Omipalisib], for which the remaining activity at 1 µM in experiment [1] is 100%; in experiment [2], 100%; in experiment [3], 88%; in experiment [4], 93%; in experiment [5] it was 100%; in experiment [6], 100%. In addition, the remaining activity at 1 µM in experiment [7] is 100%. Also, in experiment [8] (1 μM), the “off-target binding to PIK3C2G” value is reported as “non-selective”. Also, the remaining binding at 1 µM in experiment [8] came out at 0%.

For the molecule `Cn1c(=O)n(-c2ccc(C(C)(C)C#N)cc2)c2c3cc(-c4cnc5ccccc5c4)ccc3ncc21` [Dactolisib, 2-methyl-2-[4-(3-methyl-2-oxo-8-quinolin-3-yl-2,3-dihydroimidazo[4,5-c]quinolin-1-yl)-phenyl] propionitrile], the remaining activity at 1 µM is 100% in experiment [1]; 97% in experiment [2]; 94% in experiment [3]; 100% in experiment [4]; 88% in experiment [5]; 100% in experiment [6]. Moreover, the remaining activity at 1 µM in experiment [7] came to 89%. The inhibition at 1 µM in experiment [8] (1 μM) was > 80%. Also, the remaining binding at 1 µM in experiment [8] was determined as 0%.

For the molecule `CS(=O)(=O)N1CCN(Cc2cc3nc(-c4cccc5[nH]ncc45)nc(N4CCOCC4)c3s2)CC1` [Pictilisib, 2-(1H-indazol-4-yl)-6-(4-methanesulfonyl-piperazin-1-ylmethyl)-4-morpholin-4-yl-t hieno[3,2-d]pyrimidine], in experiment [7], the remaining activity at 1 µM is 100% and the remaining activity at 10 µM came out at 63%. Also, in experiment [8] (10 μM), the “off-target activity against PIK3C2G” value is given as “active”. In experiment [8], the remaining binding at 1 µM is 32% and the remaining binding at 10 µM is 2.1%.

Regarding `Nc1cc(C(F)(F)F)c(-c2cc(N3CCOCC3)nc(N3CCOCC3)n2)cn1` [Buparlisib], the remaining activity at 1 µM came out at 98% in experiment [1]; 98% in experiment [2]; 92% in experiment [3]; 100% in experiment [4]; 100% in experiment [5]; 89% in experiment [6]. In experiment [7], the remaining activity at 1 µM worked out at 99%. For the same molecule, the remaining activity at 10 µM in experiment [1] (10 µM, read-out: SYK (% of control at 10 µM)) was 100%; in experiment [2] (setting [9]) it was 100%; in experiment [3] (setting [9]), 98%; in experiment [4] (setting [9]), 100%; in experiment [5] (setting [9]) it was 100%; in experiment [6] (setting [9]), 86%. For the same molecule, the remaining activity at 10 µM in experiment [7] turned out to be 100%. In experiment [8], the remaining binding at 1 µM stood at 97%. Further, the remaining binding at 10 µM in experiment [8] turned out to be 35%.

Turning to `FC(F)c1nc2ccccc2n1-c1nc(N2CCOCC2)nc(N2CCOCC2)n1` [ZSTK474, 2-(difluoromethyl)-1-[4,6-di(4-morpholinyl)-1,3,5-triazin-2-yl]-1H-benzimidazole], the remaining activity at 1 µM in experiment [1] turned out to be 100%; in experiment [2], 96%; in experiment [3], 89%; in experiment [4], 88%; in experiment [5], 100%; in experiment [6] it was 100%. In addition, in experiment [7], the remaining activity at 1 µM turned out to be 82%. Also, in experiment [8] (1 μM), the “off-target binding to PIK3C2G” value is on record as “high binding affinity”. In addition, the remaining binding at 1 µM in experiment [8] was determined as 0%.
